In patent publication US20180251431A1 (VERTEX PHARMACEUTICALS INCORPORATED, priority 2016, published 2018):
pIC50: −log10 of the molar value.

These compounds were tested on HEK293 cells (assay: HEK293 VLCFA-LPC IC50 determination (13C-labeled C26:0 LPC by UHPLC/MS)). Conditions: Homo sapiens, HEK293, 48 h, average of one or more replicates; 13C-labeled C26:0 LPC, 48 hours; read-out: Average HEK293 IC50.
Type: cell-based, human
In short: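 Suspension HEK293 cells (final 0.5 million/mL after mixing with equal volume) incubated 48 hours with compound plus 13C-acetate (1.0 mg/mL in added media), shaking at 37° C. Lipids extracted with hexane/isopropanol or methanol, C13:0 LPC standard. UHPLC/MS of 13C-labeled C26:0 LPC (638.500/104.100 m/z); IC50 by four-parameter fit.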

Q: `Nc1c(F)cc(-n2ccc(NC(=O)C3(c4ccccc4F)CC3)n2)cc1F` [Compound 384, N-[1-(4-amino-3,5-difluoro-phenyl)pyrazol-3-yl]-1-(2-fluorophenyl)cyclopropanecarboxamide] was tested. Which pIC50 did it give?
A: 6.01

Q: How did the pIC50 turn out when `Cc1csc(-n2ccc(NC(=O)C3(c4ccccc4F)CC3)n2)n1` [Compound 374, 1-(2-fluorophenyl)-N-(1-(4-methylthiazol-2-yl)-1H-pyrazol-3-yl)cyclopropane-1-carboxamide] was run?
A: 6.33

Q: With `O=C(Nc1ccn(-c2ncns2)n1)C1(c2ccccc2F)CC1` [Compound 406, 1-(2-fluorophenyl)-N-[1-(1,2,4-thiadiazol-5-yl)pyrazol-3-yl]cyclopropanecarboxamide] as the compound, how does the pIC50 read?
A: 7.74

Q: With `N#Cc1cc(-n2ccc(NC(=O)C3(c4ccccc4F)CC3)n2)ccn1` [Compound 329, N-[1-(2-cyano-4-pyridyl)pyrazol-3-yl]-1-(2-fluorophenyl)cyclopropanecarboxamide] as the compound, how does the pIC50 read?
A: 5.44

Same assay, conditions: Homo sapiens, HEK293, HEK293 cells; average of one or more replicates; read-out: Average HEK293 IC50

Q: How did the pIC50 turn out when `O=C(Nc1ccn(-c2ccccc2)n1)C1(c2ccccc2)CCCCC1` [Compound 142, 1-phenyl-N-(1-phenylpyrazol-3-yl)cyclohexanecarboxamide] was run?
A: < 5.30

Q: How did the pIC50 turn out when `COc1cc(-n2ccc(NC(=O)C3(c4ccccc4F)CC3)n2)ccc1F` [Compound 468, N-[1-(4-fluoro-3-methoxy-phenyl)pyrazol-3-yl]-1-(2-fluorophenyl)cyclopropanecarboxamide] was run?
A: < 5.30

Q: How did the pIC50 turn out when `O=C(Cc1ccccc1)Nc1ccn(-c2ccc(F)cc2)n1` [Compound 181, N-[1-(4-fluorophenyl)pyrazol-3-yl]-2-phenyl-acetamide] was run?
A: 6.60

Q: With `CC(C)Cc1ccc(C(C)C(=O)Nc2ccn(-c3ccccc3)n2)cc1` (stereo not shown) [Compound 78, 2-(4-isobutylphenyl)-N-(1-phenylpyrazol-3-yl)propanamide] as the compound, how does the pIC50 read?
A: < 5.30

Q: How did the pIC50 turn out when `O=C(Nc1ccn(-c2ccc(F)cc2F)n1)C1(c2ccccc2F)CC1` [Compound 448, N-[1-(2,4-difluorophenyl)pyrazol-3-yl]-1-(2-fluorophenyl)cyclopropanecarboxamide] was run?
A: 6.85

Q: `COc1ccc(C2(C(=O)Nc3ccn(-c4ccccc4)n3)CC2)cc1` [Compound 25, 1-(4-methoxyphenyl)-N-(1-phenylpyrazol-3-yl)cyclopropanecarboxamide] was tested. Which pIC50 did it give?
A: 5.44

Q: With `Cn1nccc1-n1ccc(NC(=O)C2(c3ccccc3F)CC2)n1` [Compound 417, 1-(2-fluorophenyl)-N-[1-(2-methylpyrazol-3-yl)pyrazol-3-yl]cyclopropanecarboxamide] as the compound, how does the pIC50 read?
A: 6.54

Q: How did the pIC50 turn out when `C[C@H](C(=O)Nc1ccn(-c2ccccc2)n1)c1ccccc1` [Compound 20, (2S)-2-phenyl-N-(1-phenylpyrazol-3-yl)propanamide] was run?
A: 7.59

Q: `O=C(Nc1ccn(-c2ccccc2)n1)C1(c2cc(F)cc(C(F)(F)F)c2)CC1` [Compound 29, 1-[3-fluoro-5-(trifluoromethyl)phenyl]-N-(1-phenylpyrazol-3-yl)cyclopropanecarboxamide] was tested. Which pIC50 did it give?
A: 5.72

Q: `O=C(Nc1ccn(-c2cncnc2)n1)C1(c2ncccc2F)CC1` [Compound 459, 1-(3-fluoro-2-pyridyl)-N-(1-pyrimidin-5-ylpyrazol-3-yl)cyclopropanecarboxamide] was tested. Which pIC50 did it give?
A: 6.04

Q: `[2H]C([2H])([2H])Oc1ccc(-n2ccc(NC(=O)C3(c4ccccc4F)CC3)n2)cn1` [Compound 440, 1-(2-fluorophenyl)-N-[1-[6-(trideuteriomethoxy)-3-pyridyl]pyrazol-3-yl]cyclopropanecarboxamide] was tested. Which pIC50 did it give?
A: 7.28

Q: How did the pIC50 turn out when `O=C(Cc1cnccn1)Nc1ccn(-c2ccccc2)n1` [Compound 219, N-(1-phenylpyrazol-3-yl)-2-pyrazin-2-yl-acetamide] was run?
A: < 5.30

Q: How did the pIC50 turn out when `COc1cccc(C2(C(=O)Nc3ccn(-c4ccnc(F)c4)n3)CC2)c1` [Compound 250, N-[1-(2-fluoro-4-pyridyl)pyrazol-3-yl]-1-(3-methoxyphenyl)cyclopropanecarboxamide] was run?
A: 6.77

Q: How did the pIC50 turn out when `O=C(Nc1ccn(-c2cncc(F)c2)n1)C1(c2ncccn2)CC1` [Compound 529, N-[1-(5-fluoro-3-pyridyl)pyrazol-3-yl]-1-pyrimidin-2-yl-cyclopropanecarboxamide] was run?
A: 5.89

Q: `Cn1cnc(-n2ccc(NC(=O)C3(c4ccccc4F)CC3)n2)c1` [Compound 392, 1-(2-fluorophenyl)-N-(1-(1-methyl-1H-imidazol-4-yl)-1H-pyrazol-3-yl)cyclopropane-1-carboxamide] was tested. Which pIC50 did it give?
A: < 5.30

Q: How did the pIC50 turn out when `COc1cc(CC(=O)Nc2ccn(-c3ccccc3)n2)ccc1O` [Compound 9, 2-(4-hydroxy-3-methoxy-phenyl)-N-(1-phenylpyrazol-3-yl)acetamide] was run?
A: < 5.30

Q: With `[2H]C([2H])([2H])Oc1ncc(-n2ccc(NC(=O)C3(c4ccccc4F)CC3)n2)cc1F` [Compound 441, 1-(2-fluorophenyl)-N-[1-[5-fluoro-6-(trideuteriomethoxy)-3-pyridyl]pyrazol-3-yl]cyclopropanecarboxamide] as the compound, how does the pIC50 read?
A: 7.36

Q: `O=C(Cc1ccccc1)Nc1ccn(-c2ccnc(Cl)c2)n1` [Compound 83, N-(1-(2-chloropyridin-4-yl)-1H-pyrazol-3-yl)-2-phenylacetamide] was tested. Which pIC50 did it give?
A: 6.22

Q: With `O=C(Nc1ccn(-c2ccc(F)cc2)n1)C1(c2ccc(F)cn2)CC1` [Compound 488, N-[1-(4-fluorophenyl)pyrazol-3-yl]-1-(5-fluoro-2-pyridyl)cyclopropanecarboxamide] as the compound, how does the pIC50 read?
A: 6.29

Q: How did the pIC50 turn out when `O=C(Nc1ccn(-c2cc(F)ncc2F)n1)C1(c2ccccc2F)CC1` [Compound 116, N-[1-(2,5-difluoro-4-pyridyl)pyrazol-3-yl]-1-(2-fluorophenyl)cyclopropanecarboxamide] was run?
A: 7.12

Q: `O=C(Nc1ccn(-c2ccnc(F)c2)n1)C1(c2cc(F)cc(F)c2)CC1` [Compound 270, 1-(3,5-difluorophenyl)-N-[1-(2-fluoro-4-pyridyl)pyrazol-3-yl]cyclopropanecarboxamide] was tested. Which pIC50 did it give?
A: 6.55

Q: With `O=C(Cc1ccccc1F)Nc1ccn(-c2ccncn2)n1` [Compound 208, 2-(2-fluorophenyl)-N-(1-pyrimidin-4-ylpyrazol-3-yl)acetamide] as the compound, how does the pIC50 read?
A: 5.64

Q: With `Cc1ccncc1-n1ccc(NC(=O)C2(c3ccccc3F)CC2)n1` [Compound 472, 1-(2-fluorophenyl)-N-[1-(4-methyl-3-pyridyl)pyrazol-3-yl]cyclopropanecarboxamide] as the compound, how does the pIC50 read?
A: 7.25

Q: `O=C(Nc1ccn(-c2ccnc(F)c2)n1)C(c1ccccc1)C1CC1` (stereo not shown) [Compound 175, 2-cyclopropyl-N-[1-(2-fluoro-4-pyridyl)pyrazol-3-yl]-2-phenyl-acetamide] was tested. Which pIC50 did it give?
A: 6.28

Q: With `O=C(Nc1ccn(-c2ccc(F)c(F)c2)n1)C1(c2ccccc2)CC1` [Compound 192, N-[1-(3,4-difluorophenyl)pyrazol-3-yl]-1-phenyl-cyclopropanecarboxamide] as the compound, how does the pIC50 read?
A: 6.22

Q: With `COc1ncc(-n2ccc(NC(=O)C3(c4ncccc4F)CC3C)n2)cc1F` (stereo not shown) [Compound 509, N-[1-(5-fluoro-6-methoxy-3-pyridyl)pyrazol-3-yl]-1-(3-fluoro-2-pyridyl)-2-methyl-cyclopropanecarboxamide] as the compound, how does the pIC50 read?
A: 6.74

Q: `COc1cc(-n2ccc(NC(=O)C3(c4ccc(F)cn4)CC3)n2)ccn1` [Compound 485, 1-(5-fluoro-2-pyridyl)-N-[1-(2-methoxy-4-pyridyl)pyrazol-3-yl]cyclopropanecarboxamide] was tested. Which pIC50 did it give?
A: 5.82

Q: `COc1ncc(-n2ccc(NC(=O)C3(c4ncccc4F)CC3)n2)cn1` [Compound 454, 1-(3-fluoro-2-pyridyl)-N-[1-(2-methoxypyrimidin-5-yl)pyrazol-3-yl]cyclopropanecarboxamide] was tested. Which pIC50 did it give?
A: < 5.30

Q: How did the pIC50 turn out when `O=C(Cn1cccc1)Nc1ccn(-c2ccccc2)n1` [Compound 297, N-(1-phenylpyrazol-3-yl)-2-pyrrol-1-yl-acetamide] was run?
A: 5.74

Q: `O=C(Nc1ccn(-c2ccccc2)n1)C1(c2ccccc2)COC1` [Compound 144, 3-phenyl-N-(1-phenylpyrazol-3-yl)oxetane-3-carboxamide] was tested. Which pIC50 did it give?
A: 6.59

Q: `Cn1ccnc1CC(=O)Nc1ccn(-c2ccccc2)n1` [Compound 311, 2-(1-methylimidazol-2-yl)-N-(1-phenylpyrazol-3-yl)acetamide] was tested. Which pIC50 did it give?
A: < 5.30

Q: `N#Cc1ccc(C2(C(=O)Nc3ccn(-c4ccnc(F)c4)n3)CC2)cc1` [Compound 226, 1-(4-cyanophenyl)-N-[1-(2-fluoro-4-pyridyl)pyrazol-3-yl]cyclopropanecarboxamide] was tested. Which pIC50 did it give?
A: 6.96

Q: With `O=C(Nc1ccn(-c2cc(F)ccc2F)n1)C1(c2ccccc2)CC1` [Compound 163, N-[1-(2,5-difluorophenyl)pyrazol-3-yl]-1-phenyl-cyclopropanecarboxamide] as the compound, how does the pIC50 read?
A: 5.35

Q: `O=C(Nc1ccn(-c2cc(F)cc(F)c2)n1)C1(c2ccccc2F)CC1` [Compound 301, N-[1-(3,5-difluorophenyl)pyrazol-3-yl]-1-(2-fluorophenyl)cyclopropanecarboxamide] was tested. Which pIC50 did it give?
A: 6.85

Q: `O=C(Cc1ccccc1F)Nc1ccn(-c2cc(F)ccc2F)n1` [Compound 162, N-[1-(2,5-difluorophenyl)pyrazol-3-yl]-2-(2-fluorophenyl)acetamide] was tested. Which pIC50 did it give?
A: 6.13

Q: How did the pIC50 turn out when `Cc1cc(C)cc(C2(C(=O)Nc3ccn(-c4ccccc4)n3)CC2)c1` [Compound 36, 1-(3,5-dimethylphenyl)-N-(1-phenylpyrazol-3-yl)cyclopropanecarboxamide] was run?
A: < 5.30

Q: With `O=C(Nc1ccn(-c2ccccc2)n1)C1(c2ccc(Cl)cc2F)CC1` [Compound 263, 1-(4-chloro-2-fluoro-phenyl)-N-(1-phenylpyrazol-3-yl)cyclopropanecarboxamide] as the compound, how does the pIC50 read?
A: < 5.30

Q: `O=C(Cc1ccsc1)Nc1ccn(-c2ccnc(F)c2)n1` [Compound 293, N-[1-(2-fluoro-4-pyridyl)pyrazol-3-yl]-2-(3-thienyl)acetamide] was tested. Which pIC50 did it give?
A: 6.01

Same assay, conditions: average of one or more replicates; 13C-labeled C26:0 LPC, 48 hours; read-out: Average HEK293 IC50

Q: How did the pIC50 turn out when `O=C(Nc1ccn(-c2ccnc(F)c2)n1)C1(c2ccccc2)CC1(F)F` (single isomer, unassigned) [Compound 369] was run?
A: 7.44
